# Results published in ChEMBL document CHEMBL5244219, “Recent developments of quinolone-based derivatives and their activities against Escherichia coli” (Eur J Med Chem, 2018).
# System: Escherichia coli
# Assay: Antibacterial activity against Escherichia coli assessed as bacterial growth inhibition measured after 18 to 24 hrs by broth microdilution method
# Format: functional
# Conditions: time 18-24 hrs
row,Compound,MIC [µg/mL]
1,CC1CNCCN1c1nc2c(cc1F)c(=O)c(C(=O)O)cn2-c1ccc(O)cc1 (stereo not drawn),< 0.05
2,COc1c(N2C[C@@H]3[C@@H](N)[C@@H]3C2)c(F)cc2c(=O)c(C(=O)O)cn(-c3ccc(O)cc3)c12,< 0.05
3,C[C@H]1CN(c2nc3c(cc2F)c(=O)c(C(=O)O)cn3-c2ccc(O)cc2)C[C@H]1N,< 0.05
4,COc1c(N2CCC(CN)C2)c(F)cc2c(=O)c(C(=O)O)cn(-c3ccc(O)cc3)c12 (stereo not drawn),< 0.05
5,COc1c(N2C[C@@H](C)N[C@@H](C)C2)c(F)cc2c(=O)c(C(=O)O)cn(-c3ccc(O)cc3)c12,< 0.05
6,C[C@@H]1CN(c2nc3c(cc2F)c(=O)c(C(=O)O)cn3-c2ccc(O)cc2)C[C@H](C)N1,< 0.05
7,COc1c(N2CCNCC2)c(F)cc2c(=O)c(C(=O)O)cn(-c3ccc(O)cc3)c12,< 0.05
8,CN1CCC2CN(c3nc4c(cc3F)c(=O)c(C(=O)O)cn4-c3ccc(O)cc3)CC21 (stereo not drawn),< 0.05
9,NC1CCN(c2nc3c(cc2F)c(=O)c(C(=O)O)cn3-c2ccc(O)cc2)C1 (stereo not drawn),< 0.05
10,NCC1CCN(c2cc3c(cc2F)c(=O)c(C(=O)O)cn3-c2ccc(O)cc2)C1 (stereo not drawn),< 0.05
11,N[C@@H]1CCC[C@@H]2CN(c3nc4c(cc3F)c(=O)c(C(=O)O)cn4-c3ccc(O)cc3)C[C@@H]21,< 0.05
12,COc1c(N2CC3CC2CN3)c(F)cc2c(=O)c(C(=O)O)cn(-c3ccc(O)cc3)c12 (stereo not drawn),< 0.05
13,N[C@@H]1CCC[C@@H]2CN(c3cc4c(cc3F)c(=O)c(C(=O)O)cn4-c3ccc(O)cc3)C[C@@H]21,< 0.05
14,O=C(O)c1cn(-c2ccc(O)cc2)c2nc(N3CC4CCCNC4C3)c(F)cc2c1=O (stereo not drawn),< 0.05
15,COc1c(N2CC3CCCNC3C2)c(F)cc2c(=O)c(C(=O)O)cn(-c3ccc(O)cc3)c12 (stereo not drawn),< 0.05
16,C[C@@H](N)[C@H]1CCN(c2cc3c(cc2F)c(=O)c(C(=O)O)cn3-c2ccc(O)cc2)C1,< 0.05
17,CN1CCC2CN(c3cc4c(cc3F)c(=O)c(C(=O)O)cn4-c3ccc(O)cc3)CC21 (stereo not drawn),< 0.05
18,N[C@@H]1CN(c2cc3c(cc2F)c(=O)c(C(=O)O)cn3-c2ccc(O)cc2)CC12CC2,< 0.05
19,N[C@H]1CN(c2nc3c(cc2F)c(=O)c(C(=O)O)cn3-c2ccc(O)cc2)CC12CC2,< 0.05
20,C[C@H](N)[C@H]1CCN(c2nc3c(cc2F)c(=O)c(C(=O)O)cn3-c2ccc(O)cc2)C1,< 0.05
21,COc1c(N2CCC(N)C2)c(F)cc2c(=O)c(C(=O)O)cn(-c3ccc(O)cc3)c12 (stereo not drawn),< 0.05
22,COc1c(N2CC3CCN(C)C3C2)c(F)cc2c(=O)c(C(=O)O)cn(-c3ccc(O)cc3)c12 (stereo not drawn),< 0.05
23,C[C@@H]1CN(c2cc3c(cc2F)c(=O)c(C(=O)O)cn3-c2ccc(O)cc2)C[C@H](C)N1,< 0.05
24,NCC1CCN(c2nc3c(cc2F)c(=O)c(C(=O)O)cn3-c2ccc(O)cc2)C1 (stereo not drawn),< 0.05

row,Compound,MIC [µg/mL]
1,O=C(O)c1cn(-c2ccc(O)cc2)c2cc(N3CC4CCCNC4C3)c(F)cc2c1=O (stereo not drawn),< 0.05
2,C[C@H](N)[C@@H]1CCN(c2nc3c(cc2F)c(=O)c(C(=O)O)cn3-c2ccc(O)cc2)C1,< 0.05
3,N[C@@H]1[C@H]2CN(c3nc4c(cc3F)c(=O)c(C(=O)O)cn4-c3ccc(O)cc3)C[C@@H]12,< 0.05
4,C[C@@H]1CN(c2cc3c(cc2F)c(=O)c(C(=O)O)cn3-c2ccc(O)cc2)C[C@H]1N,< 0.05
5,C[C@H](N)[C@H]1CCN(c2cc3c(cc2F)c(=O)c(C(=O)O)cn3-c2ccc(O)cc2)C1,< 0.05
6,O=C(O)c1cn(-c2ccc(O)cc2)c2nc(N3CC4CC3CN4)c(F)cc2c1=O (stereo not drawn),< 0.05
7,N[C@H]1CN(c2cc3c(cc2F)c(=O)c(C(=O)O)cn3-c2ccc(O)cc2)CC12CC2,< 0.05
8,C[C@H](N)[C@@H]1CCN(c2cc3c(cc2F)c(=O)c(C(=O)O)cn3-c2ccc(O)cc2)C1,< 0.05
9,CN1CCN(c2nc3c(cc2F)c(=O)c(C(=O)O)cn3-c2ccc(O)cc2)CC1,< 0.05
10,COc1c(N2C[C@@H](N)C3(CC3)C2)c(F)cc2c(=O)c(C(=O)O)cn(-c3ccc(O)cc3)c12,< 0.05
11,C[C@@H]1C[C@H](N)CN1c1cc2c(cc1F)c(=O)c(C(=O)O)cn2-c1ccc(O)cc1,< 0.05
12,COc1c(N2C[C@@H](N)[C@@H](C)C2)c(F)cc2c(=O)c(C(=O)O)cn(-c3ccc(O)cc3)c12,< 0.05
13,C[C@@H](N)[C@H]1CCN(c2nc3c(cc2F)c(=O)c(C(=O)O)cn3-c2ccc(O)cc2)C1,< 0.05
14,NC1CCN(c2cc3c(cc2F)c(=O)c(C(=O)O)cn3-c2ccc(O)cc2)C1 (stereo not drawn),< 0.05
15,C[C@H]1CN(c2cc3c(cc2F)c(=O)c(C(=O)O)cn3-c2ccc(O)cc2)C[C@H]1N,< 0.05
16,N[C@@H]1CN(c2nc3c(cc2F)c(=O)c(C(=O)O)cn3-c2ccc(O)cc2)CC12CC2,< 0.05
17,N[C@@H]1[C@H]2CN(c3cc4c(cc3F)c(=O)c(C(=O)O)cn4-c3ccc(O)cc3)C[C@@H]12,< 0.05
18,O=C(O)c1cn(-c2ccc(O)cc2)c2cc(N3CCNCC3)c(F)cc2c1=O,< 0.05
19,COc1c(N2CCN(C)CC2)c(F)cc2c(=O)c(C(=O)O)cn(-c3ccc(O)cc3)c12,< 0.05
20,O=C(O)c1cn(-c2ccc(O)cc2)c2cc(N3CC4CC3CN4)c(F)cc2c1=O (stereo not drawn),< 0.05
21,O=C(O)c1cn(-c2ccc(O)cc2)c2nc(N3CCNCC3)c(F)cc2c1=O,< 0.05
22,C[C@@H]1CN(c2nc3c(cc2F)c(=O)c(C(=O)O)cn3-c2ccc(O)cc2)C[C@H]1N,< 0.05
23,COc1c(N2C[C@@H](C)[C@H](N)C2)c(F)cc2c(=O)c(C(=O)O)cn(-c3ccc(O)cc3)c12,< 0.05

# System: Escherichia coli
# Assay: Antibacterial activity against Escherichia coli assessed as bacterial growth inhibition
# Format: functional
# Conditions: not given
row,Compound,MIC [µg/mL]
1,CC1(C)S[C@@H]2[C@H](NC(=O)[C@H](N)c3ccc(O)cc3)C(=O)N2[C@H]1C(=O)O [AMOXICILLIN],2
2,C[C@H]1COc2c(N3CCC4(CCN(C)C4)C3)c(F)cc3c(=O)c(C(=O)O)cn1c23 (stereo partly drawn),0.025
3,O=C(O)c1cn([C@@H]2C[C@@H]2F)c2cc(N3CCN(Cn4nc(-c5ccccc5O)n(-c5ccccc5)c4=S)CC3)c(F)cc2c1=O,≤ 0.04
4,COc1cc(/C=N/n2c(=O)c(C(C)=O)cc3cc(Cl)ccc32)cc(OC)c1OC,1.6
5,CC(=O)c1cc2cc(Cl)ccc2n(/N=C/c2ccc(O)cc2)c1=O,1.6
6,CC(=O)c1cc2cc(Cl)ccc2n(/N=C/c2ccccc2[N+](=O)[O-])c1=O,1.6
7,COc1ccc(-c2nn(CN3CCN(c4cc5c(cc4F)c(=O)c(C(=O)O)cn5[C@@H]4C[C@@H]4F)CC3)c(=S)n2-c2ccccc2)cc1OC,≤ 0.04
8,CC(=O)c1cc2ccccc2n(/N=C/c2ccccc2Cl)c1=O,1.6
9,COc1cc(/C=N/n2c(=O)c(C(C)=O)cc3cc([N+](=O)[O-])ccc32)cc(OC)c1OC,1.6
10,CC1Cn2cc(C(=O)O)c(=O)c3cc(F)c(N4CCNCC4)c(c32)S1 (stereo not drawn),0.25
11,CC1Cn2cc(C(=O)O)c(=O)c3cc(F)c(N4CCN(C=O)CC4)c(c32)S1 (stereo not drawn),0.12
12,CC(=O)c1cc2ccccc2n(/N=C/c2ccc(C)cc2)c1=O,1.6
13,CC1Cn2cc(C(=O)O)c(=O)c3cc(F)c(N4CCN(c5ccc(F)cc5)CC4)c(c32)S1 (stereo not drawn),0.12
14,CC1Cn2cc(C(=O)O)c(=O)c3cc(F)c(N4C(C)CNCC4C)c(c32)S1 (stereo not drawn),0.12
15,O=C(O)c1cn2c3c(c(Cl)c(F)cc3c1=O)SC(c1cccc(F)c1)C2 (stereo not drawn),0.12
16,CC(=O)c1cc2ccccc2n(/N=C/c2cccc([N+](=O)[O-])c2)c1=O,1.6
17,CC1Cn2cc(C(=O)O)c(=O)c3cc(F)c(N4CCN(Cc5ccc(F)cc5F)CC4)c(c32)S1 (stereo not drawn),0.12
18,O=C(O)c1cn([C@@H]2C[C@@H]2F)c2cc(N3CCN(Cn4nc(-c5ccc6ccccc6c5)n(Cc5ccccc5)c4=S)CC3)c(F)cc2c1=O,≤ 0.04
19,CC1Cn2cc(C(=O)O)c(=O)c3cc(F)c(N4CCN(C)CC4)c(c32)S1 (stereo not drawn),0.12
20,CN1CCN(c2c(F)cc3c(=O)c(C(=O)O)cn4c3c2SCC4)CC1 [RUFLOXACIN],0.25
21,CN1CCN(c2c(F)cc3c(=O)c(C(=O)O)cn4c3c2SC(c2ccc(F)cc2)C4)CC1 (stereo not drawn),0.12

row,Compound,MIC [µg/mL]
1,CC1Cn2cc(C(=O)O)c(=O)c3cc(F)c(-n4ccnc4)c(c32)S1 (stereo not drawn),0.12
2,CC1Cn2cc(C(=O)O)c(=O)c3cc(F)c(N4CCCNCC4)c(c32)S1 (stereo not drawn),0.12
3,CC1Cn2cc(C(=O)O)c(=O)c3cc(F)c(N4CCCC4)c(c32)S1 (stereo not drawn),0.12
4,CC(=O)c1cc2ccccc2n(/N=C/c2ccc(O)cc2)c1=O,1.6
5,CC1Cn2cc(C(=O)O)c(=O)c3cc(F)c(N4CCN(S(=O)(=O)c5ccc(F)cc5)CC4)c(c32)S1 (stereo not drawn),0.12
6,CC(=O)c1cc2ccccc2n(/N=C/c2ccccc2[N+](=O)[O-])c1=O,1.6
7,CC1Cn2cc(C(=O)O)c(=O)c3cc(F)c(N4CCN(Cc5cccc(F)c5)CC4)c(c32)S1 (stereo not drawn),0.12
8,CC1Cn2cc(C(=O)O)c(=O)c3cc(F)c(Cl)c(c32)S1 (stereo not drawn),0.12
9,CCNCC1CCN(c2c(F)cc3c(=O)c(C(=O)O)cn4c3c2SC(C)C4)C1 (stereo not drawn),0.12
10,CC1Cn2cc(C(=O)O)c(=O)c3cc(F)c(N4CCN(c5ccccn5)CC4)c(c32)S1 (stereo not drawn),0.12
11,COc1cc(-c2nn(CN3CCN(c4cc5c(cc4F)c(=O)c(C(=O)O)cn5[C@@H]4C[C@@H]4F)CC3)c(=S)n2-c2ccccc2)cc(OC)c1OC,≤ 0.04
12,CC1Cn2cc(C(=O)O)c(=O)c3cc(F)c(N4CCN(Cc5ccccc5C(F)(F)F)CC4)c(c32)S1 (stereo not drawn),0.12
13,CC(=O)c1cc2cc(Cl)ccc2n(/N=C/c2ccc(C)cc2)c1=O,1.6
14,CC(=O)c1cc2cc([N+](=O)[O-])ccc2n(/N=C/c2cccc([N+](=O)[O-])c2)c1=O,1.6
15,O=C(O)c1cn2c3c(c(Cl)c(F)cc3c1=O)SC(c1ccc(F)cc1)C2 (stereo not drawn),0.12
16,O=C(O)c1cn2c3c(c(N4CCNCC4)c(F)cc3c1=O)SC(c1ccc(F)cc1)C2 (stereo not drawn),0.12
17,O=C(O)c1cn2c3c(c(Cl)c(F)cc3c1=O)SC(c1ccccc1F)C2 (stereo not drawn),0.12
18,COc1cc(OC)cc(-c2nn(CN3CCN(c4cc5c(cc4F)c(=O)c(C(=O)O)cn5[C@@H]4C[C@@H]4F)CC3)c(=S)n2-c2ccccc2)c1,≤ 0.04
19,COc1cc(OC)cc(-c2nn(CN3CCN(c4cc5c(cc4F)c(=O)c(C(=O)O)cn5[C@@H]4C[C@@H]4F)CC3)c(=S)n2Cc2ccccc2)c1,≤ 0.04
20,O=C(O)c1cn([C@@H]2C[C@@H]2F)c2cc(N3CCN(Cn4nc(-c5ccncc5)n(-c5ccccc5)c4=S)CC3)c(F)cc2c1=O,≤ 0.04
